Experimental data from patent US20240101572A1, “DIHYDROOXADIAZINONE COMPOUND AND PHARMACEUTICAL USE THEREOF” (Japan Tobacco Inc., priority 2022, published 2024).
Like-named read-outs stand apart in the source and are kept apart here.

How the values were obtained:
full-length human PLD2 = full-length human PLD2 (Homo sapiens (Human), UniProt O14939); experiment: Evaluation of human PLD2 enzyme inhibitory activity (Amplex Red / choline oxidase fluorescence); type: biochemical
Outline: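 Released choline was read by Amplex Red fluorescence coupled to choline oxidase and HRP after a 60 min room-temperature reaction. Substrate was diheptanoyl phosphatidylcholine, added as a 6 mmol/L solution, and enzyme was FLAG-tagged full-length human PLD2 from Expi293F, added as a 6 nmol/L solution. Buffer was 50 mM HEPES pH 7.5 with 5% final DMSO.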

full-length human PLD1 = full-length human PLD1 (Homo sapiens (Human), UniProt Q13393); experiment: Evaluation of human PLD1 enzyme inhibitory activity (Amplex Red / choline oxidase fluorescence); type: biochemical
full-length human PLD1, sequence (Q13393 other isoform, or with tags, fused parts or gaps): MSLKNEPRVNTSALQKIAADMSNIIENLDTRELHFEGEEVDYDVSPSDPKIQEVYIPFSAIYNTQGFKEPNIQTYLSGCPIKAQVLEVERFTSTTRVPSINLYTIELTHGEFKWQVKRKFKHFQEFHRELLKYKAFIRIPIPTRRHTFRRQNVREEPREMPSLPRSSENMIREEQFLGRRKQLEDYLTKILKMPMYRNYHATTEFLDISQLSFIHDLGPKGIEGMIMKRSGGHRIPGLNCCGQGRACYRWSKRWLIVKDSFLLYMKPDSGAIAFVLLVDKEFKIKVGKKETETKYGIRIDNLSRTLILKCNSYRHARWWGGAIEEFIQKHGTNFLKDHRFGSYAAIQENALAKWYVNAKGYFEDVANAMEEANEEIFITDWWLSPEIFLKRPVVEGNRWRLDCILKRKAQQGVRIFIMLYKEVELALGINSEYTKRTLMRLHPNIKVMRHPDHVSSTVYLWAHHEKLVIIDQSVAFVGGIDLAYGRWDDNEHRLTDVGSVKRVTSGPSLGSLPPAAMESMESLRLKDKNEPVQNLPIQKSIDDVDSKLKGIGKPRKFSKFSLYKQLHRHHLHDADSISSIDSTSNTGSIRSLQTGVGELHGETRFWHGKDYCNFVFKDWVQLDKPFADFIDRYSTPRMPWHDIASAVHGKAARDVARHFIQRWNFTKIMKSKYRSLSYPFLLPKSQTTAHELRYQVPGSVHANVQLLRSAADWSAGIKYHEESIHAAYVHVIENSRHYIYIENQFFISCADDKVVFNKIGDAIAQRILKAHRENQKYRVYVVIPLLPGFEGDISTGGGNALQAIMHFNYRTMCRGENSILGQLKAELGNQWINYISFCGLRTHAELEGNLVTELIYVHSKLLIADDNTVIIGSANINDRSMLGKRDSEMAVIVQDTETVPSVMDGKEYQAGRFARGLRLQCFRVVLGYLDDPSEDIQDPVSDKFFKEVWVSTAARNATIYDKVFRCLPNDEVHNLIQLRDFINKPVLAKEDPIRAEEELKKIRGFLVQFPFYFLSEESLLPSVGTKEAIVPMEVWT
Outline: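 Fluorescence read-out couples choline to Amplex Red via choline oxidase and peroxidase after a 60 min room-temperature reaction. Enzyme: FLAG-tagged full-length human PLD1 from Expi293F cells, anti-FLAG purified; substrate diheptanoyl phosphatidylcholine; HEPES pH 7.5 assay buffer with 0.01% NP-40, 0.1% BSA, 5% DMSO final.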

[1] = full-length human PLD2 enzyme, read-out: PLD2 IC50
[2] = full-length human PLD1 enzyme, read-out: PLD1 IC50
[3] = column 2 of continuation tables 2-12 to 2-14, read-out: human PLD2 enzyme inhibitory activity IC50
[4] = column 1 of continuation tables 2-12 to 2-14, read-out: human PLD1 enzyme inhibitory activity IC50

full-length human PLD2, sequence (O14939 whole entry): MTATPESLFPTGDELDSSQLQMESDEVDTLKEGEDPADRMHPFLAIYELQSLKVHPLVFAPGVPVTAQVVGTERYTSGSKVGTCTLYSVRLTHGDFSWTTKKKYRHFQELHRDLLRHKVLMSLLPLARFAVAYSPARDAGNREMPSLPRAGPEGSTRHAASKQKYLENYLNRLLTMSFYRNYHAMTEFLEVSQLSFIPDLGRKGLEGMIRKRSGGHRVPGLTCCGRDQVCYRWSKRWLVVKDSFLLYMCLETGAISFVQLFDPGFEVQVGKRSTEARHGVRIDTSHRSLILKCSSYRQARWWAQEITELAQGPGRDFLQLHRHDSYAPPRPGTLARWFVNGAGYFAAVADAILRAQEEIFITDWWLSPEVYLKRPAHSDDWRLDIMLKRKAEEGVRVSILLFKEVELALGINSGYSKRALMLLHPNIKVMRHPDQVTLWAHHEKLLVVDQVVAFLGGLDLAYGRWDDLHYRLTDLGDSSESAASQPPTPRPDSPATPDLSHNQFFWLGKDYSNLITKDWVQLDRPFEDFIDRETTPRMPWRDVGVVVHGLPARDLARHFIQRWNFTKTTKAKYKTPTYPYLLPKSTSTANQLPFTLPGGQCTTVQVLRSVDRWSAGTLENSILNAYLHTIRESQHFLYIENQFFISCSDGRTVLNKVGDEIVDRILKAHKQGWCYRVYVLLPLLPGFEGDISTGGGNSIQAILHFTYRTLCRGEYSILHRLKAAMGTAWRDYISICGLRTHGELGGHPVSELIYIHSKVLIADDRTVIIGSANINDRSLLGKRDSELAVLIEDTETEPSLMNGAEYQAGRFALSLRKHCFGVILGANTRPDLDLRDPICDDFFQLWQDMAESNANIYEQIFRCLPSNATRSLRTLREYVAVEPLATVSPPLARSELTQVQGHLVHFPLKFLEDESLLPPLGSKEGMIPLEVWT

SMILES | IC50 (full-length human PLD2; [1]) [nM] | IC50 (full-length human PLD1; [2]) [nM] | IC50 (full-length human PLD2; [3]) [nM] | IC50 (full-length human PLD1; [4]) [nM]
CNC(=O)C(=O)N[C@@H](C)C[C@H]1CC[C@]2(CC1)OC(=O)NN=C2c1cc(C#N)ccc1Br [Example 198, N^1—((S)-1-(cis-5-(2-bromo-5-cyanophenyl)-2-oxo-1-oxa-3,4-diazaspiro[5.5]undec-4-en-9-yl)propan-2-yl)-N^2-methyloxamide] | < 10 | 11 | – | –
C[C@@H](CN1CCC2(CC1)OC(=O)NN=C2c1cc(C#N)ccc1Br)NC(=O)c1cncn1C [Example 2-053] | 245 | 676 | – | –
[2H]C([2H])([2H])NC(=O)C(=O)N[C@@H](C)C[C@]1(OC)CC[C@@]2(CC1)OC(=O)NN=C2c1ccc(C#N)cc1Br [Example 2-130] | – | – | < 10 | 32
CNC(=O)C(=O)NC(C)C[C@H]1CC[C@@]2(CC1)OC(=O)NN=C2c1cc(C#N)ccc1Br (mixture of isomers) [Example 2-148] | – | – | 46 | 140
Cc1cc(C(=O)N[C@@H](C)CN2CCC3(CC2)OC(=O)NN=C3c2ccc(C#N)cc2C(F)(F)F)[nH]n1 [Example 326] | 38 | 54 | – | –
Cc1ncccc1C1=NNC(=O)O[C@]12CC[C@@H](C[C@H](C)NC(=O)c1cc3ccccc3o1)CC2 [Example 104] | 217 | 75 | – | –
CNC(=O)C(=O)N[C@@H](C)CN1CCC2(CC1)OC(=O)NN=C2c1cc(C(C)(C)O)ccc1Br [Example 2-034] | 10 | 31 | – | –
[2H]C([2H])([2H])NC(=O)C(=O)N[C@@H](C)C[C@]1(OC)CC[C@@]2(CC1)OC(=O)NN=C2c1ccc(F)cc1Br [Example 2-135] | – | – | < 10 | 20
CNC(=O)C(=O)N[C@@H](C)C[C@]1(C#N)CC[C@@]2(CC1)OC(=O)NN=C2c1ccc(OC(F)F)cc1Br [Example 2-067] | < 10 | 15 | – | –
C[C@@H](CN1CCC2(CC1)OC(=O)NN=C2c1ccc(C#N)cc1Br)NC(=O)c1cn(C)cn1 [Example 2-060] | 11 | 27 | – | –
CNC(=O)C(=O)N[C@@H](C)C[C@H]1CC[C@]2(CC1)OC(=O)NN=C2c1ccc(C(C)(C)O)cc1C [Example 178] | 17 | 14 | – | –
C[C@@H](CN1CCC2(CC1)OC(=O)NN=C2c1ccc(F)cc1Cl)NC(=O)c1cc2cc(F)ccc2o1 [Example 91] | 15 | 23 | – | –
CNC(=O)C(=O)N[C@@H](C)C[C@H]1CC[C@]2(CC1)OC(=O)NN=C2c1cnc(C2CC2)cc1C [Example 171] | < 10 | 13 | – | –
C[C@@H](C[C@H]1CC[C@]2(CC1)OC(=O)NN=C2c1ccc(F)cc1Br)NC(=O)c1cc2cc(F)ccc2[nH]1 [Example 13] | < 10 | 36 | – | –
Cc1cc(C(=O)N[C@@H](C)C[C@H]2CC[C@]3(CC2)OC(=O)NN=C3c2ccc(C(=O)NC3CC3)cc2C)[nH]n1 [Example 204] | 146 | 123 | – | –
Cc1cc(C(=O)N[C@@H](C)CN2CCC3(CC2)OC(=O)NN=C3c2ccc(F)cc2Cl)[nH]n1 [Example 93] | < 10 | 32 | – | –
COc1cc(C)c(C2=NNC(=O)O[C@]23CC[C@@H](C[C@H](C)NC(=O)NCc2ccccn2)CC3)cn1 [Example 261] | 313 | 168 | – | –
C=C(OCC)c1ccc(C2=NNC(=O)O[C@]23CC[C@@H](C[C@H](C)NC(=O)C(=O)NC)CC3)c(C)c1 [Example 163] | < 10 | < 10 | – | –
CNC(=O)C(=O)N[C@@H](C)C[C@H]1CC[C@]2(CC1)OC(=O)NN=C2c1cc(C(=O)N(C)C)ccc1Br [Example 2-036] | < 10 | 17 | – | –
CNC(=O)C(=O)N[C@@H](C)C[C@H]1CC[C@]2(CC1)OC(=O)NN=C2c1cnc(C)cc1C [Example 173] | 10 | 29 | – | –
CNC(=O)C(=O)N[C@@H](C)C[C@]1(C#N)CC[C@@]2(CC1)OC(=O)NN=C2c1ccc(C#N)cc1Br [Example 2-065] | < 10 | 21 | – | –
Cc1cc(C(=O)N[C@@H](C)C[C@]2(O)CC[C@]3(CC2)OC(=O)NN=C3c2ccc(F)cc2Br)[nH]n1 [Example 320, N—((S)-1-(cis-5-(2-bromo-4-fluorophenyl)-9-hydroxy-2-oxo-1-oxa-3,4-diazaspiro[5.5]undec-4-en-9-yl)propan-2-yl)-3-methyl-1H-pyrazole-5-carboxamide] | 1580 | 3880 | – | –

SMILES | IC50 (full-length human PLD2; [1]) [nM] | IC50 (full-length human PLD1; [2]) [nM] | IC50 (full-length human PLD2; [3]) [nM] | IC50 (full-length human PLD1; [4]) [nM]
CNC(=O)C(=O)N[C@@H](C)C[C@H]1CC[C@]2(CC1)OC(=O)NN=C2c1ccc(F)cc1C [Example 55] | < 10 | 15 | – | –
[2H]C([2H])([2H])NC(=O)C(=O)N[C@@H](C)C[C@]1(C#N)CC[C@@]2(CC1)OC(=O)NN=C2c1ccc(F)cc1Br [Example 2-134] | – | – | < 10 | 18
Cc1cccnc1C1=NNC(=O)O[C@]12CC[C@@H](C[C@H](C)NC(=O)c1cc(Cl)no1)CC2 [Example 148] | 18 | 20 | – | –
C[C@@H](C[C@H]1CC[C@]2(CC1)OC(=O)NN=C2c1ccc(C#N)cc1Br)NC(=O)N1CCn2nncc2C1 [Example 271] | < 10 | 18 | – | –
CNC(=O)C(=O)N[C@@H](C)C[C@H]1CC[C@]2(CC1)OC(=O)NN=C2c1ccccc1OC(F)(F)F [Example 105] | 41 | 27 | – | –
CCCS(=O)(=O)c1ccc(C2=NNC(=O)O[C@]23CC[C@@H](C[C@H](C)NC(=O)C(=O)NC)CC3)c(Cl)c1 [Example 77] | < 10 | 26 | – | –
C[C@@H](CN1CCC2(CC1)OC(=O)NN=C2c1ccc(F)cc1Br)NC(=O)c1cc2cc(F)ccc2[nH]1 [Example 2] | < 10 | 20 | – | –
C[C@@H](C[C@H]1CC[C@]2(CC1)OC(=O)NN=C2c1cccc(OC(F)F)c1Br)NC(=O)C(=O)NC1CC1 [Example 308] | < 10 | 15 | – | –
C[C@@H](CN1CCC2(CC1)OC(=O)NN=C2c1ccc(F)cc1Br)NC(=O)C(=O)NC12CC(C1)C2 [Example 202] | 1250 | 832 | – | –
CNC(=O)C(=O)N[C@@H](C)C[C@H]1CC[C@]2(CC1)OC(=O)NN=C2c1cnc(N2CCC2)cc1C [Example 159] | < 10 | 28 | – | –
C[C@@H](C[C@H]1CC[C@]2(CC1)OC(=O)NN=C2c1cccc(OC(F)F)c1Br)NC(=O)c1cnn(C)c1 [Example 309] | < 10 | 15 | – | –
CNC(=O)C(=O)N[C@H](C)CN1CCC2(CC1)OC(=O)NN=C2c1ccc(F)cc1Br [Example 2-011] | 2940 | 2110 | – | –
CNC(=O)C(=O)N[C@@H](C)C[C@H]1CC[C@]2(CC1)OC(=O)NN=C2c1ccc(OC(F)F)cc1Br [Example 140] | < 10 | < 10 | – | –
CNC(=O)C(=O)N[C@@H](C)C[C@H]1CC[C@]2(CC1)OC(=O)NN=C2c1cccc2c1OC(F)(F)O2 [Example 118] | 73 | 50 | – | –
COC(=O)/C=C/C(=O)N[C@@H](C)CN1CCC2(CC1)OC(=O)NN=C2c1cc(C#N)ccc1Br [Example 2-024] | 28 | 46 | – | –
C[C@@H](C[C@H]1CC[C@]2(CC1)OC(=O)NN=C2c1cc(Cl)ccc1Cl)NC(=O)c1cn2ccccc2n1 [Example 324] | 22 | 20 | – | –
C[C@@H](C[C@H]1CC[C@]2(CC1)OC(=O)NN=C2c1ccc(S(C)(=O)=O)cc1Cl)NC(=O)c1cc(Cl)no1 [Example 52] | < 10 | 21 | – | –
CNC(=O)C(=O)N[C@@H](C)C[C@]1(O)CC[C@@]2(CC1)OC(=O)NN=C2c1ccc(F)cc1Br [Example 321] | < 10 | 42 | – | –
Cc1ccncc1C1=NNC(=O)O[C@]12CC[C@@H](C[C@H](C)NC(=O)c1cc(Cl)no1)CC2 [Example 113] | 13 | 17 | – | –
[2H]C([2H])([2H])NC(=O)C(=O)N[C@@H](C)C[C@]1(C#N)CC[C@@]2(CC1)OC(=O)NN=C2c1cc(OC(F)F)c(F)cc1Br [Example 2-138] | – | – | < 10 | 14
CNC(=O)C(=O)N[C@@H](C)C[C@H]1CC[C@]2(CC1)OC(=O)NN=C2c1cccnc1 [Example 17] | 1040 | 816 | – | –
Cc1cccnc1C1=NNC(=O)O[C@]12CC[C@@H](C[C@H](C)NC(=O)c1cc3ccccc3o1)CC2 [Example 149] | < 10 | 12 | – | –
